Test results as given in US20100152141A1, “COMBINATIONS COMPRISING 5HT6 MODULATORS AND CHOLINESTERASE INHIBITORS” (EPIX DELAWARE, INC, priority 2006, published 2010).

Assays:
[1] = test system: adult male Lister hooded rats; experiment: novel object discrimination (NOD) task, natural forgetting with 4 h inter-trial interval; assay type: in vivo, rat
Method: NOD testing was performed as described by King et al. (2004 Neuropharmacol. 47 195), and used five separate groups (n=12) of adult male Lister hooded rats (145-235 g). Within each group rats were tested on 3-4 occasions (at one-week intervals) to receive all possible treatment combinations and serve as their own controls.

5-HT6 receptor = 5-HT6 receptor (Homo sapiens, UniProt P50406); experiment: 5-HT6 receptor affinity (Ki) of Compound A; assay type: binding
5-HT6 receptor, sequence (P50406 whole entry): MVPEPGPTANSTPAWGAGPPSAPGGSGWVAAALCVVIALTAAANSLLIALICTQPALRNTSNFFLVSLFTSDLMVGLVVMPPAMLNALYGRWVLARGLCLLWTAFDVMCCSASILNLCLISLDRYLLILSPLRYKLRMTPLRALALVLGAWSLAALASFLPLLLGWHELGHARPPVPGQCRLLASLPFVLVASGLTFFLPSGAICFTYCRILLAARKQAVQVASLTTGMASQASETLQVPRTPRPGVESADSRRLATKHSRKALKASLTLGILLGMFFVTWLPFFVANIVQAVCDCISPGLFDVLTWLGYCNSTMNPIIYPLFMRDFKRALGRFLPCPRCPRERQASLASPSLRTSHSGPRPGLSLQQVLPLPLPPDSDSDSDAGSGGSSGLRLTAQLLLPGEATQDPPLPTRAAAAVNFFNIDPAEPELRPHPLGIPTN

SMILES | natural forgetting (discrimination of novel versus familiar object) ([1]; Aricept 0.1 mg/kg i.p., 20 min pre-treatment, 4 h inter-trial interval) | natural forgetting (discrimination of novel versus familiar object) ([1]; Aricept 0.3 mg/kg i.p., 20 min pre-treatment, 4 h inter-trial interval) | discrimination ratio versus vehicle ([1]; Aricept 1 mg/kg i.p., 20 min pre-treatment) | natural forgetting (discrimination of novel versus familiar object) ([1]; Aricept 1 mg/kg i.p., 20 min pre-treatment, 4 h inter-trial interval, novel versus familiar p<0.001) | Ki (5-HT6 receptor) | natural forgetting (discrimination of novel versus familiar object) ([1]; Compound A 0.3 mg/kg i.p. combined with sub-efficacious dose (0.1 mg/kg i.p.) of Aricept, novel versus familiar p<0.01) | natural forgetting (discrimination of novel versus familiar object) ([1]; Compound A 0.3 mg/kg i.p. given alone) | natural forgetting (discrimination of novel versus familiar object) ([1]; Compound A 1 mg/kg i.p. combined with sub-efficacious dose (0.1 mg/kg i.p.) of Aricept, novel versus familiar p<0.05) | natural forgetting (discrimination of novel versus familiar object) ([1]; Compound A 1 mg/kg i.p. given alone) | natural forgetting (discrimination of novel versus familiar object) ([1]; Compound A 3 mg/kg i.p., 40 min pre-treatment, 4 h inter-trial interval, novel versus familiar p<0.001) | discrimination ratio versus vehicle ([1]; Compound A 3 mg/kg i.p., 40 min pre-treatment, p<0.05 repeated measures ANOVA) | natural forgetting (discrimination of novel versus familiar object) ([1]; Compound A 10 mg/kg i.p., 40 min pre-treatment, 4 h inter-trial interval, novel versus familiar p<0.01) | discrimination ratio versus vehicle ([1]; Compound A 10 mg/kg i.p., 40 min pre-treatment, p<0.05 repeated measures ANOVA)
COc1cc2c(cc1OC)C(=O)C(CC1CCN(Cc3ccccc3)CC1)C2 (stereo not shown) [Aricept, donepezil, reference compound] | lacked effect | lacked effect | without significantly increasing the discrimination ratio | prevented natural forgetting |  |  |  |  |  |  |  |  | 
COc1cc(Cl)cc(C(C)Nc2cc(N3CCNCC3)ccc2S(C)(=O)=O)c1OC.Cl (stereo not shown) [Compound A, [1-(5-Chloro-2,3-dimethoxy-phenyl)-ethyl]-(2-methanesulfonyl-5-piperazin-1-yl-phenyl)-amine hydrochloride] |  |  |  |  | 4 nM | restored discrimination | lacked significant effect | restored discrimination | lacked significant effect | prevented this natural forgetting | increased the discrimination ratio from vehicle levels | prevented this natural forgetting | increased the discrimination ratio from vehicle levels
